Where two headings read alike, the source gives them in different places.
Assay: Test 2: blood pressure depression up to 24 hours and duration until 50% recovery, oral
Type: in vivo, Male, spontaneously hypertension-developing rats
Conditions: for response vs control in vivo at 25 mg/kg: Rattus norvegicus; for Duration 50% recovery: duration until pressure recovered to 50% from the maximum depression value
Method: Male, spontaneously hypertension-developing rats of ages of 10 to 11 weeks (in groups of 3 to 5 animals) were used in the test. For blood pressure determination, systolic pressure was measured without anesthesia by an indirect tail-cuff method using a sphygmomanometer (PE-300, Narco Bio-System).

[1] = 1h after oral administration, percent based on that before administration (100), read-out: Depression value (%) of blood pressure, 1h
[2] = 2h after oral administration, percent based on that before administration (100), read-out: Depression value (%) of blood pressure, 2h
[3] = 4h after oral administration, percent based on that before administration (100), read-out: Depression value (%) of blood pressure, 4h
[4] = 7h after oral administration, percent based on that before administration (100), read-out: Depression value (%) of blood pressure, 7h
[5] = 24h after oral administration, percent based on that before administration (100), read-out: Depression value (%) of blood pressure, 24h
[6] = maximum lowering, percent based on that before administration (100), read-out: Depression value (%) of blood pressure, Max

COC(=O)C1=C(C)NC(C)=C(C(=O)OCCN(C)Cc2ccccc2)C1c1cccnc1Br (stereo not shown) [(11)]
response vs control in vivo at 25 mg/kg [1]: 83%
response vs control in vivo at 25 mg/kg [2]: 82%
response vs control in vivo at 25 mg/kg [3]: 87%
response vs control in vivo at 25 mg/kg [4]: 91%
response vs control in vivo at 25 mg/kg [5]: 97%
response vs control in vivo at 25 mg/kg [6]: 82%
Duration 50% recovery: 6.7 h

COC(=O)C1=C(C)NC(C)=C(C(=O)OCCN(C)Cc2ccccc2)C1c1ncccc1[N+](=O)[O-] (stereo not drawn) [(1), 2,6-Dimethyl-4-(3-nitro-2-pyridyl)-1,4-dihydropyridine-3,5-dicarboxylicacid 3-β-(N-benzyl-N-methylamino)ethyl ester 5-methyl ester]
response vs control in vivo at 25 mg/kg [1]: 65%
response vs control in vivo at 25 mg/kg [2]: 68%
response vs control in vivo at 25 mg/kg [3]: 76%
response vs control in vivo at 25 mg/kg [4]: 81%
response vs control in vivo at 25 mg/kg [5]: 96%
response vs control in vivo at 25 mg/kg [6]: 65%
Duration 50% recovery: 8.7 h

COC(=O)C1=C(C)NC(C)=C(C(=O)OCCN(C)Cc2ccccc2)C1c1cncc(C(F)(F)F)c1 (stereo not drawn) [(17), 2,6-Dimethyl-4-(5-trifluoromethyl-3-pyridyl)-1,4-dihydropyridine-3,5-dicarboxylic acid 3-β-(N-benzyl-N-methylamino)ethyl ester 5-methyl ester]
response vs control in vivo at 25 mg/kg [1]: 91%
response vs control in vivo at 25 mg/kg [2]: 92%
response vs control in vivo at 25 mg/kg [3]: 95%
response vs control in vivo at 25 mg/kg [4]: 98%
response vs control in vivo at 25 mg/kg [5]: 105%
response vs control in vivo at 25 mg/kg [6]: 91%
Duration 50% recovery: 4.2 h

COC(=O)C1=C(C)NC(C)=C(C(=O)OCCN(C)Cc2ccccc2)C1c1cc(Br)ccn1 (stereo not drawn) [(2), 2,6-Dimethyl-4-(4-bromo-2-pyridyl)-1,4-dihydropyridine-3,5-dicarboxylicacid 3-β-(N-benzyl-N-methylamino)ethyl ester 5-methyl ester]
response vs control in vivo at 25 mg/kg [1]: 70%
response vs control in vivo at 25 mg/kg [2]: 76%
response vs control in vivo at 25 mg/kg [3]: 75%
response vs control in vivo at 25 mg/kg [4]: 92%
response vs control in vivo at 25 mg/kg [5]: 102%
response vs control in vivo at 25 mg/kg [6]: 70%
Duration 50% recovery: 5.8 h

COC(=O)C1=C(C)NC(C)=C(C(=O)OCCN(C)Cc2ccccc2)C1c1cccc([N+](=O)[O-])c1 (stereo not drawn) [Nic, 2,6-dimethyl-4-(3-nitrophenyl)-1,4-dihydropyridine-3,5-dicarboxylic acid 3-β-(N-benzyl-N-methylamino)ethyl ester 5-methyl ester, reference compound]
response vs control in vivo at 25 mg/kg [1]: 62%
response vs control in vivo at 25 mg/kg [2]: 68%
response vs control in vivo at 25 mg/kg [3]: 76%
response vs control in vivo at 25 mg/kg [4]: 81%
response vs control in vivo at 25 mg/kg [5]: 96%
response vs control in vivo at 25 mg/kg [6]: 62%
Duration 50% recovery: 7.0 h

COC(=O)C1=C(C)NC(C)=C(C(=O)OCCN(C)Cc2ccccc2)C1c1cncc(Br)c1 (stereo not drawn) [(14), 2,6-Dimethyl-4-(5-bromo-3-pyridyl)-1,4-dihydropyridine-3,5-dicarboxylic ac id 3-β-(N-benzyl-N-methylamino)ethyl ester 5-methyl ester]
response vs control in vivo at 25 mg/kg [1]: 83%
response vs control in vivo at 25 mg/kg [2]: 91%
response vs control in vivo at 25 mg/kg [3]: 90%
response vs control in vivo at 25 mg/kg [4]: 90%
response vs control in vivo at 25 mg/kg [5]: 101%
response vs control in vivo at 25 mg/kg [6]: 83%
Duration 50% recovery: 9.3 h

COC(=O)C1=C(C)NC(C)=C(C(=O)OCCN(C)Cc2ccccc2)C1c1cccc(C(F)(F)F)n1 (stereo not drawn) [(9), 2,6-Dimethyl-4-(6-trifluoromethyl-2-pyridyl)-1,4-dihydropyridine-3,5-dicarboxylic acid 3-β-(N-benzyl-N-methylamino)ethyl ester 5-methyl ester]
response vs control in vivo at 25 mg/kg [1]: 85%
response vs control in vivo at 25 mg/kg [2]: 92%
response vs control in vivo at 25 mg/kg [3]: 91%
response vs control in vivo at 25 mg/kg [4]: 104%
response vs control in vivo at 25 mg/kg [5]: 119%
response vs control in vivo at 25 mg/kg [6]: 85%
Duration 50% recovery: 4.6 h

COC(=O)C1=C(C)NC(C)=C(C(=O)OCCN(C)Cc2ccccc2)C1c1ccc(C#N)nc1 (stereo not drawn) [(15), 2,6-Dimethyl-4-(6-cyano-3-pyridyl)-1,4-dihydropyridine-3,5-dicarboxylic ac id 3-β-(N-benzyl-N-methylamino)ethyl ester 5-methyl ester]
response vs control in vivo at 25 mg/kg [1]: 88%
response vs control in vivo at 25 mg/kg [2]: 90%
response vs control in vivo at 25 mg/kg [3]: 83%
response vs control in vivo at 25 mg/kg [4]: 89%
response vs control in vivo at 25 mg/kg [5]: 95%
response vs control in vivo at 25 mg/kg [6]: 83%
Duration 50% recovery: 15.1 h

COC(=O)C1=C(C)NC(C)=C(C(=O)OCCN(C)Cc2ccccc2)C1c1cc(C#N)ccn1 (stereo not drawn) [(3), 2,6-Dimethyl-4-(4-cyano-2-pyridyl)-1,4-dihydropyridyne-3,5-dicarboxylicacid 3-β-(N-benzyl-N-methylamino)ethyl ester 5-methyl ester]
response vs control in vivo at 25 mg/kg [1]: 61%
response vs control in vivo at 25 mg/kg [2]: 66%
response vs control in vivo at 25 mg/kg [3]: 74%
response vs control in vivo at 25 mg/kg [4]: 82%
response vs control in vivo at 25 mg/kg [5]: 95%
response vs control in vivo at 25 mg/kg [6]: 61%
Duration 50% recovery: 7.0 h

COC(=O)C1=C(C)NC(C)=C(C(=O)OCCN(C)Cc2ccccc2)C1c1ccnc(F)c1 (stereo not drawn) [(16), 2,6-Dimethyl-4-(2-fluoro-4-pyridyl)-1,4-dihydropyridine-3,5-dicarboxylic acid 3-β-(N-benzyl-N-methylamino)ethyl ester 5-methyl ester]
response vs control in vivo at 25 mg/kg [1]: 92%
response vs control in vivo at 25 mg/kg [2]: 94%
response vs control in vivo at 25 mg/kg [3]: 95%
response vs control in vivo at 25 mg/kg [4]: 98%
response vs control in vivo at 25 mg/kg [5]: 96%
response vs control in vivo at 25 mg/kg [6]: 92%
Duration 50% recovery: 5.5 h

COC(=O)C1=C(C)NC(C)=C(C(=O)OCCN(C)Cc2ccccc2)C1c1cncc([N+](=O)[O-])c1 (stereo not drawn) [(18), 2,6-Dimethyl-4-(5-nitro-3-pyridyl)-1,4-dihydropyridine-3,5-dicarboxylic ac id 3-β-(N-benzyl-N-methylamino)ethyl ester 5-methyl ester]
response vs control in vivo at 25 mg/kg [1]: 90%
response vs control in vivo at 25 mg/kg [2]: 86%
response vs control in vivo at 25 mg/kg [3]: 95%
response vs control in vivo at 25 mg/kg [4]: 96%
response vs control in vivo at 25 mg/kg [5]: 96%
response vs control in vivo at 25 mg/kg [6]: 86%
Duration 50% recovery: 3.7 h

COC(=O)C1=C(C)NC(C)=C(C(=O)OCCN(C)Cc2ccccc2)C1c1cccnc1C#N (stereo not drawn) [(12), 2,6-Dimethyl-4-(2-cyano-3-pyridyl)-1,4-dihydropyridine-3,5-dicarboxylic ac id 3-β-(N-benzyl-N-methylamino)ethyl ester 5-methyl ester]
response vs control in vivo at 25 mg/kg [1]: 66%
response vs control in vivo at 25 mg/kg [2]: 71%
response vs control in vivo at 25 mg/kg [3]: 76%
response vs control in vivo at 25 mg/kg [4]: 88%
response vs control in vivo at 25 mg/kg [5]: 98%
response vs control in vivo at 25 mg/kg [6]: 66%
Duration 50% recovery: 5.6 h

COC(=O)C1=C(C)NC(C)=C(C(=O)OCCN(C)Cc2ccccc2)C1c1cccnc1C(F)(F)F (stereo not drawn) [(13), 2,6-Dimethyl-4-(2-trifluoromethyl-3-pyridyl)-1,4-dihydropyridine-3,5-dicarboxylic acid 3-β-(benzyl-N-methylamino)ethyl ester 5-methyl ester]
response vs control in vivo at 25 mg/kg [1]: 73%
response vs control in vivo at 25 mg/kg [2]: 67%
response vs control in vivo at 25 mg/kg [3]: 67%
response vs control in vivo at 25 mg/kg [4]: 71%
response vs control in vivo at 25 mg/kg [5]: 94%
response vs control in vivo at 25 mg/kg [6]: 67%
Duration 50% recovery: 16.2 h

COC(=O)C1=C(C)NC(C)=C(C(=O)OCCN(C)Cc2ccccc2)C1c1ccnc(C#N)c1 (stereo not drawn) [(19), 2,6-Dimethyl-4-(2-cyano-4-pyridyl)-1,4-dihydropyridine-3,5-dicarboxylic ac id 3-β-(N-benzyl-N-methylamino)ethyl ester 5-methyl ester]
response vs control in vivo at 25 mg/kg [1]: 75%
response vs control in vivo at 25 mg/kg [2]: 94%
response vs control in vivo at 25 mg/kg [3]: 100%
response vs control in vivo at 25 mg/kg [4]: 98%
response vs control in vivo at 25 mg/kg [5]: 99%
response vs control in vivo at 25 mg/kg [6]: 75%
Duration 50% recovery: 1.7 h

COC(=O)C1=C(C)NC(C)=C(C(=O)OCCN(C)Cc2ccccc2)C1c1cccc([N+](=O)[O-])n1 (stereo not drawn) [(10), 2,6-Dimethyl-4-(6-nitro-2-pyridyl)-1,4-dihydropyridine-3,5-dicarboxylic ac id 3-β-(N-benzyl-N-methylamino)ethyl ester 5-methyl ester]
response vs control in vivo at 25 mg/kg [1]: 99%
response vs control in vivo at 25 mg/kg [2]: 95%
response vs control in vivo at 25 mg/kg [3]: 107%
response vs control in vivo at 25 mg/kg [4]: 110%
response vs control in vivo at 25 mg/kg [5]: 120%
response vs control in vivo at 25 mg/kg [6]: 95%
Duration 50% recovery: 2.4 h

COC(=O)C1=C(C)NC(C)=C(C(=O)OC)C1c1ccccc1[N+](=O)[O-] [Nif, 2,6-dimethyl-4-(2-nitrophenyl)-1,4-dihydropyridine-3,5-dicarboxylic acid dimethyl ester, reference compound]
response vs control in vivo at 25 mg/kg (po, 1 h, read-out: Depression value (%) of blood pressure, 1h): 72%
response vs control in vivo at 25 mg/kg (po, 2 h, read-out: Depression value (%) of blood pressure, 2h): 73%
response vs control in vivo at 25 mg/kg (po, 4 h, read-out: Depression value (%) of blood pressure, 4h): 77%
response vs control in vivo at 25 mg/kg (po, 7 h, read-out: Depression value (%) of blood pressure, 7h): 70%
response vs control in vivo at 25 mg/kg (po, 24 h, read-out: Depression value (%) of blood pressure, 24h): 90%
response vs control in vivo at 25 mg/kg (read-out: Depression value (%) of blood pressure, Max): 70%
Duration 50% recovery: 19.4 h
